Results published in PubChem BioAssay (NCI).
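Tested at 5 concentrations; 48 h exposure; 96-well plates; endpoints linearly interpolated, else capped at highest concentration. The concentration for full growth arrest is given as TGI.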

Tests used:
Test in all cases: inhibition of tumour cell growth, NCI panel, 48 h
CCRF-CEM leukemia = tested on: CCRF-CEM leukemia
CAKI-1 renal = tested on: CAKI-1 renal
SK-MEL-5 melanoma = tested on: SK-MEL-5 melanoma
SF-268 CNS = tested on: SF-268 CNS
SK-OV-3 ovarian = tested on: SK-OV-3 ovarian
SK-MEL-2 melanoma = tested on: SK-MEL-2 melanoma
HCT-15 colon = tested on: HCT-15 colon
A549 NSCLC = tested on: A549 NSCLC
COLO 205 colon = tested on: COLO 205 colon
SNB-19 CNS = tested on: SNB-19 CNS
TK-10 renal = tested on: TK-10 renal
M14 melanoma = tested on: M14 melanoma
BT-549 breast = tested on: BT-549 breast
MDA-MB-435 = tested on: MDA-MB-435

SMILES	TGI (CCRF-CEM leukemia)	TGI (CAKI-1 renal)	TGI (SK-MEL-5 melanoma)	TGI (SF-268 CNS)	TGI (SK-OV-3 ovarian)	TGI (SK-MEL-2 melanoma)	TGI (HCT-15 colon)	TGI (A549 NSCLC)	TGI (COLO 205 colon)	TGI (SNB-19 CNS)	TGI (TK-10 renal)	TGI (M14 melanoma)	TGI (BT-549 breast)	TGI (MDA-MB-435)
CC(=O)OCC1OC(Nc2ncc(-c3ccc(C)cc3)s2)C(OC(C)=O)C(OC(C)=O)C1OC(C)=O (stereo not given)	> 100 µM	> 81.1 µM	> 100 µM	> 100 µM	> 100 µM	> 78.2 µM	> 100 µM	> 100 µM	> 100 µM	> 100 µM	–	–	–	–
C/C(=C1/CCCC2(N=NCC2c2ccccc2)C1=O)c1ccccc1 (stereo not given)	66.1 µM	–	25.3 µM	> 100 µM	> 100 µM	42.1 µM	> 100 µM	92.6 µM	31.1 µM	> 100 µM	> 100 µM	29 µM	–	–
CNC(=S)N/N=C(C)\C(=N/NC(=S)NC)c1ccccc1	–	> 100 µM	> 100 µM	> 100 µM	> 100 µM	–	> 100 µM	> 100 µM	> 100 µM	> 100 µM	> 100 µM	> 100 µM	> 100 µM	–
Cc1ccc(C2CC(c3ccco3)=NN2c2ccccc2)o1 (stereo not given)	> 100 µM	–	> 100 µM	> 100 µM	–	> 100 µM	> 100 µM	> 100 µM	> 100 µM	> 100 µM	> 100 µM	> 100 µM	–	–
CCOC(=O)C(N=Nc1ccc(S(N)(=O)=O)cc1)C(C)=O (stereo not given)	> 100 µM	> 100 µM	> 100 µM	> 100 µM	> 100 µM	> 100 µM	> 100 µM	> 100 µM	> 100 µM	> 100 µM	> 100 µM	> 100 µM	–	–
CCC1c2[nH]c3ccccc3c2C[C@H]2C(=O)NC(COC(C)(C)C)C(=O)N12 (stereo not given in full)	–	> 100 µM	93.3 µM	> 100 µM	> 100 µM	85 µM	> 100 µM	> 100 µM	37.6 µM	> 100 µM	> 100 µM	> 100 µM	> 100 µM	> 100 µM
CCN1CCN(c2ccc(Nc3ccnc4ccc5nn(C)nc5c34)cc2)CC1	> 100 µM	29 µM	28.5 µM	29.8 µM	31.5 µM	–	27.6 µM	27.3 µM	18.4 µM	43.9 µM	39.4 µM	30 µM	–	–
COC(=O)C1OC(Oc2cc(O)c3c(=O)cc(-c4ccc(O)cc4)oc3c2)C(O)C(O)C1O (stereo not given)	> 100 µM	> 100 µM	> 100 µM	> 100 µM	> 100 µM	> 100 µM	> 100 µM	> 100 µM	> 100 µM	> 100 µM	–	–	–	–
CC(=O)c1sc2c(c1OC(=O)c1cccs1)c(=O)n(-c1ccccc1)c(=S)n2-c1ccccc1	22.6 µM	61.1 µM	25.8 µM	51.5 µM	52 µM	–	36.5 µM	> 100 µM	32.5 µM	44.8 µM	55.4 µM	10.6 µM	–	20.8 µM
OCC1OC(n2cnc3c2NC=NC[C@H]3O)C(O)C1O (stereo not given in full)	> 284 µM	> 450 µM	> 71.3 µM	> 450 µM	> 450 µM	> 450 µM	> 450 µM	> 450 µM	> 450 µM	> 450 µM	–	–	–	–
